This is an account of results in patent US10562902B2, “IRAK4 inhibitor and use thereof” (BEIJING HANMI PHARMACEUTICAL CO., LTD., priority 2015, dated 2020).

The experiment has as its target IRAK4 kinase (Homo sapiens (Human), UniProt Q9NWZ3). The experiment is described as follows: IRAK4 kinase activity inhibition assay. To be noted: ADP-Glo kinase assay, 10 μM ATP, MBP substrate. It counts as biochemical. The method, then: IRAK4 kinase (purchased from Life Technologies, Cat. No.: PR5612U) was diluted to 2 folds of the final concentration (the final concentration is […]) with reaction buffer (40 mM Tris-HC1, pH 7.5; 20 mM MgCl2; 0.1 mg/mL BSA; 1 mM DTT), and added to a 384-well plate at 5 μL/well. The test drugs were 10-fold serial diluted from 10 μM to set six concentration points and added to the test wells of the 384-well plate at 2.5 μL/well. After incubation for 10 min at 25° C., 10 μM of ATP and 0.1 μg/μL of an enzyme reaction substrate, myelin basic protein MBP (purchased from Signal Chem, Cat. No.: M42-51N) were added at 2.5 μL/well, and reacted at 25° C. for 60 minutes. After the reaction was completed, the kinase activity assay was performed using the ADP-Glo™ kinase assay kit (purchased from Promega, Cat. No.: V9102) according to the manufacture's instruction, i.e., 10 μL of ADP-Glo reaction reagent was first added and reacted at 25° C. for 40 minutes, 10 μL of the reaction mixture was taken and mixed with 10 μL of ADP-Glo detection reagent, and reacted at 25° C. for 30 minutes. The kinase activity was then detected, and the IC50 values of the test drugs were calculated.
(In ADP-Glo the light output rises with the ADP produced.)

Bounds are passed on as bounds.

Chain of IRAK4 kinase (Q9NWZ3 whole entry): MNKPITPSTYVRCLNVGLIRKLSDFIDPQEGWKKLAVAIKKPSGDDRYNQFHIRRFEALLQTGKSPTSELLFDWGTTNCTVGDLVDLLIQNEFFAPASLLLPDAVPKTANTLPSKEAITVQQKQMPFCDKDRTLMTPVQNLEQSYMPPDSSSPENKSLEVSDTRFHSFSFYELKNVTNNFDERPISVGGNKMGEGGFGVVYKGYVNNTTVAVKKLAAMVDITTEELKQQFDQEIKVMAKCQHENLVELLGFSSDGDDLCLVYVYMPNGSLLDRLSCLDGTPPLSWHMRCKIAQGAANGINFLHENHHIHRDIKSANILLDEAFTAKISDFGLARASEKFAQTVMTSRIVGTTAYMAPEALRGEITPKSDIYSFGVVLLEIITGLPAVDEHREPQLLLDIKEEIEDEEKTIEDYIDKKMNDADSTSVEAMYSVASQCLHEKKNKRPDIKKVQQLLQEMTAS

Regarding `Cc1cc(Nc2nc(OC3CCCCC3)c3c(ccn3-c3cnn(C)c3)n2)sn1` [Example 66], the IC50 was not above 100 nM.

`Cc1cc(Nc2nc(OC3CCC(O)CC3)c3c(ccn3-c3cnn(C)c3)n2)sn1` (centres unmarked) [Example 67]: the IC50 was 100 to 1000 nM.

`COC1CCC(Oc2nc(Nc3cc(C)ns3)nc3ccn(-c4cnn(C)c4)c23)CC1` (centres unmarked) [Example 68]: the half-inhibitory concentration (IC50) was in the range of 100 to 1000 nM.

For the compound `Cc1cc(Nc2nc(OC3CCCN(C)C3)c3c(ccn3-c3cnn(C)c3)n2)sn1` (centres unmarked) [Example 69], the IC50 is 100 to 1000 nM.

`CC(=O)N1CCCC(Oc2nc(Nc3cc(C)ns3)nc3ccn(-c4cnn(C)c4)c23)C1` (centres unmarked) [Example 70]: the 50% inhibitory concentration (IC50) fell in the range of 100 to 1000 nM.

In the case of `Cc1cc(Nc2nc(OC3CCNCC3)c3c(ccn3-c3cnn(C)c3)n2)sn1` [Example 71], the 50% inhibitory concentration (IC50) fell in the range of 100 to 1000 nM.

The compound `Cc1cc(Nc2nc(OC3CCN(C)CC3)c3c(ccn3-c3cnn(C)c3)n2)sn1` [Example 72] displayed a concentration for half-maximal inhibition (IC50) of 100 to 1000 nM.

As for `CC(=O)N1CCC(Oc2nc(Nc3cc(C)ns3)nc3ccn(-c4cnn(C)c4)c23)CC1` [Example 73], the half-inhibitory concentration (IC50) lay within 100 to 1000 nM.

As for `Cc1cc(Nc2nc(OC3CCSCC3)c3c(ccn3-c3cnn(C)c3)n2)sn1` [Example 75], the concentration for half-maximal inhibition (IC50) fell in the range of 100 to 1000 nM.

Compound `Cc1cc(Nc2nc(OC3CCS(=O)(=O)CC3)c3c(ccn3-c3cnn(C)c3)n2)sn1` [Example 76] registered an IC50 of 100 to 1000 nM.

As to `Cn1cc(-n2ccc3nc(Nc4ccc[nH]4)nc(O[C@H]4CCOC4)c32)cn1` [Example 77], the IC50 is not above 100 nM.

On to `Cn1cc(-n2ccc3nc(Nc4cccs4)nc(O[C@H]4CCOC4)c32)cn1` [Example 78], for which the IC50 was not above 100 nM.

Turning to `Cn1cc(-n2ccc3nc(Nc4ccc(C#N)s4)nc(O[C@H]4CCOC4)c32)cn1` [Example 79], the 50% inhibitory concentration (IC50) was in the range of 100 to 1000 nM.

As for `Cn1cc(-n2ccc3nc(Nc4cc(C#N)cs4)nc(O[C@H]4CCOC4)c32)cn1` [Example 80], the IC50 lay within 100 to 1000 nM.

`Cn1cc(-n2ccc3nc(Nc4ccsc4)nc(O[C@H]4CCOC4)c32)cn1` [Example 81] gave a concentration for half-maximal inhibition (IC50) of 100 to 1000 nM.

`Cc1cc(Nc2nc(O[C@H]3CCOC3)c3c(ccn3-c3cnn(C)c3)n2)cs1` [Example 82] registered an IC50 of 100 to 1000 nM.

Compound `Cc1cc(Nc2nc(O[C@H]3CCOC3)c3c(ccn3-c3cnn(C)c3)n2)on1` [Example 83] showed an IC50 of 100 to 1000 nM.

In turn, `Cc1cc(Nc2nc(O[C@H]3CCOC3)c3c(ccn3-c3cnn(C)c3)n2)[nH]n1` [Example 84] returned a half-inhibitory concentration (IC50) of 100 to 1000 nM.

The compound `Cn1cc(-n2ccc3nc(Nc4csc5ccccc45)nc(O[C@H]4CCOC4)c32)cn1` [Example 85] registered a half-maximal inhibitory concentration (IC50) of 1000 to 10000 nM.

Consider `Cc1cc(Nc2nc(OC3CCOCC3)c3c(ccn3-c3ccn(C)c3)n2)sn1` [Example 86], for which the IC50 was 100 to 1000 nM.

`Cc1cc(Nc2nc(O[C@H]3CCOC3)c3c(ccn3-c3ccoc3)n2)sn1` [Example 87] registered an IC50 not above 100 nM.

For the compound `Cc1cc(Nc2nc(OC3CCOCC3)c3c(ccn3-c3ccoc3)n2)sn1` [Example 88], the IC50 is 100 to 1000 nM.

For `Cc1cc(Nc2nc(OC3CCOCC3)c3c(ccn3-c3ccsc3)n2)sn1` [Example 89], the half-maximal inhibitory concentration (IC50) lay in the range of 100 to 1000 nM.

In the case of `CCn1cc(-n2ccc3nc(Nc4cc(C)ns4)nc(OC4CCOCC4)c32)cn1` [Example 90], the IC50 was 100 to 1000 nM.

For `COCCn1cc(-n2ccc3nc(Nc4cc(C)ns4)nc(OC4CCOCC4)c32)cn1` [Example 91], the half-maximal inhibitory concentration (IC50) was in the range of 100 to 1000 nM.

`Cc1cc(Nc2nc(OC3CCOCC3)c3c(ccn3-c3ccccc3)n2)sn1` [Example 92] had a concentration for half-maximal inhibition (IC50) of 100 to 1000 nM.

Compound `COc1ccccc1-n1ccc2nc(Nc3cc(C)ns3)nc(OC3CCOCC3)c21` [Example 93] had a half-maximal inhibitory concentration (IC50) of 1000 to 10000 nM.

With `COc1cccc(-n2ccc3nc(Nc4cc(C)ns4)nc(OC4CCOCC4)c32)c1` [Example 94], the IC50 fell in the range of 1000 to 10000 nM.

Turning to `COc1ccc(-n2ccc3nc(Nc4cc(C)ns4)nc(OC4CCOCC4)c32)cc1` [Example 95], the IC50 is 1000 to 10000 nM.

With `Cc1cc(Nc2nc(OC3CCOCC3)c3c(ccn3-c3cccc(N(C)C)c3)n2)sn1` [Example 96], the IC50 fell in the range of 1000 to 10000 nM.

Take `Cc1cc(Nc2nc(OC3CCOCC3)c3c(ccn3-c3ccncc3)n2)sn1` [Example 97]: the IC50 fell in the range of 100 to 1000 nM.

As to `Cc1cc(Nc2nc(OC3CCOCC3)c3c(ccn3-c3cccnc3)n2)sn1` [Example 98], the half-maximal inhibitory concentration (IC50) fell in the range of 100 to 1000 nM.

The compound `COc1cncc(-n2ccc3nc(Nc4cc(C)ns4)nc(OC4CCOCC4)c32)c1` [Example 99] displayed an IC50 of 100 to 1000 nM.

In turn, `Cc1cc(Nc2nc(O[C@H]3CCOC3)c3c(ccn3-c3ccncc3)n2)sn1` [Example 100] had a concentration for half-maximal inhibition (IC50) of 100 to 1000 nM.

Consider `COc1cc(-n2ccc3nc(Nc4cc(C)ns4)nc(OC4CCOCC4)c32)ccn1` [Example 101], for which the IC50 is 100 to 1000 nM.

`Cc1cc(Nc2nc(OC3CCOCC3)c3c(ccn3-c3ccnnc3)n2)sn1` [Example 102] gave an IC50 of 100 to 1000 nM.

As to `Cc1cc(Nc2nc(OC3CCOCC3)c3c(ccn3-c3cncnc3)n2)sn1` [Example 103], the IC50 lay in the range of 100 to 1000 nM.

`Cc1cc(Nc2nc(OC3CCOCC3)c3c(ccn3-c3cccc4c3OCCO4)n2)sn1` [Example 104]: the concentration for half-maximal inhibition (IC50) was in the range of 100 to 1000 nM.

`Cn1cc(Nc2nc(O[C@H]3CCOC3)c3c(ccn3-c3cnn(C)c3)n2)cn1` [Example 105, (S)-(1-methyl-1H-pyrazol-4-yl)-[5-(1-methyl-1H-pyrazol-4-yl)-4-(tetrahydrofuran-3-yloxy)-5H-pyrrolo[3,2-d]pyrimidin-2-yl]amine] yielded an IC50 not above 100 nM.

With `Cn1cc(-n2ccc3nc(Nc4cn[nH]c4)nc(O[C@H]4CCOC4)c32)cn1` [Example 106], the IC50 was not above 100 nM.

For `Cn1cc(-n2ccc3nc(Nc4cnn(CCF)c4)nc(O[C@H]4CCOC4)c32)cn1` [Example 107], the IC50 is not above 100 nM.

As to `Cn1cc(-n2ccc3nc(Nc4cnn(CCO)c4)nc(O[C@H]4CCOC4)c32)cn1` [Example 108], the 50% inhibitory concentration (IC50) is not above 100 nM.

On to `Cn1cc(-n2ccc3nc(Nc4cnn(C5CCCCC5)c4)nc(O[C@H]4CCOC4)c32)cn1` [Example 109], for which the concentration for half-maximal inhibition (IC50) was in the range of 100 to 1000 nM.

As to `Cn1cc(-n2ccc3nc(Nc4cnn(C5CCOCC5)c4)nc(O[C@H]4CCOC4)c32)cn1` [Example 110], the half-maximal inhibitory concentration (IC50) is not above 100 nM.

Turning to `CN1CCC(n2cc(Nc3nc(O[C@H]4CCOC4)c4c(ccn4-c4cnn(C)c4)n3)cn2)CC1` [Example 111], the IC50 is not above 100 nM.

The compound `Cn1cc(-n2ccc3nc(Nc4cnn(-c5ccccc5)c4)nc(O[C@H]4CCOC4)c32)cn1` [Example 112] came in with an IC50 of 100 to 1000 nM.

`Cn1cc(-n2ccc3nc(Nc4cnn(-c5ccncc5)c4)nc(O[C@H]4CCOC4)c32)cn1` [Example 113] displayed an IC50 not above 100 nM.

With `Cn1cc(-n2ccc3nc(Nc4cnn(-c5cccnc5)c4)nc(O[C@H]4CCOC4)c32)cn1` [Example 114], the half-maximal inhibitory concentration (IC50) is not above 100 nM.

On to `Cn1cc(-n2ccc3nc(Nc4cnoc4)nc(O[C@H]4CCOC4)c32)cn1` [Example 115], for which the half-inhibitory concentration (IC50) was in the range of 100 to 1000 nM.

Compound `Cn1cc(-n2ccc3nc(Nc4ccccc4)nc(O[C@H]4CCOC4)c32)cn1` [Example 116] returned a 50% inhibitory concentration (IC50) of 100 to 1000 nM.

`Cn1cc(-n2ccc3nc(Nc4cccnc4)nc(O[C@H]4CCOC4)c32)cn1` [Example 117] registered an IC50 of 1000 to 10000 nM.

As to `Cn1cc(-n2ccc3nc(Nc4ccc(N5CCOCC5)cc4)nc(O[C@H]4CCOC4)c32)cn1` [Example 118], the half-maximal inhibitory concentration (IC50) was in the range of 100 to 1000 nM.

In turn, `Cn1cc(-n2ccc3nc(Nc4ccc(C(=O)N5CCOCC5)cc4)nc(O[C@H]4CCOC4)c32)cn1` [Example 119] returned an IC50 of 100 to 1000 nM.

As a reminder, the IC50 is the midpoint of a concentration-inhibition curve.
